Laboratory results from EP4806910A1, “TRI-AGONIST COMPOUND” (priority 2023, dated 2025).
Like-named read-outs stand apart in the source and are kept apart here.

Tests used:
Type in all cases: cell-based
GLP-1R = molecular target: T1, GLP-1R (Homo sapiens, UniProt P43220); assay: GLP-1 activity test (cAMP, chemiluminescence)
T1 construct: expressed in transfected cells; host or cells: CHO-K1
Experimental: (§1) Upon stimulation by a specific agonist, GLP-1R activates the intracellular adenylate cyclase signaling pathway, resulting in an increase in cAMP levels and ultimately leading to insulin production and secretion. A cell line stably transfected with GLP-1R was stimulated with test compounds, thereby rapidly increasing intracellular cAMP levels. The relative luminescence units (RLU) of cells stimulated at various concentrations were measured by a chemiluminescence method, and the EC50 value of the agonist was calculated accordingly. This activity test method is currently a commonly used method for evaluating GLP-1 receptor agonist activity both domestically and internationally. A CHO-K1 cell line stably expressing GLP-1R was used. The stable cells were stimulated with agonists at different concentrations, and the relative luminescence units after stimulation at each concentration were measured to calculate the EC50 value of the agonist.

GIPR = molecular target: T2, GIPR (Homo sapiens, UniProt P48546); assay: GIP activity test (cAMP, chemiluminescence)
T2 construct: expressed in transfected cells; host or cells: CHO-K1
T2 sequence (P48546 22-466): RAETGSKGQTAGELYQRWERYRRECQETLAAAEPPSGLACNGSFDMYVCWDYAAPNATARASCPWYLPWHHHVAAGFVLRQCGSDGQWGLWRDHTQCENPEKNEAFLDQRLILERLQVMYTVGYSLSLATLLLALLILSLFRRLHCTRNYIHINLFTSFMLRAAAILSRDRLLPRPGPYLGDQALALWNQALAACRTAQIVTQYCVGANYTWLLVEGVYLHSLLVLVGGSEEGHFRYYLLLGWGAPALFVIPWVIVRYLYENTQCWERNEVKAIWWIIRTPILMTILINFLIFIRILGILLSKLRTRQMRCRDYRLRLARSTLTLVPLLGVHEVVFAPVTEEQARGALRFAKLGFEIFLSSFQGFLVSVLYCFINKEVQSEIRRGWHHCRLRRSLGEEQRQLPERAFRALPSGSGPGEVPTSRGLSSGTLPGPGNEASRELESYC
Experimental: as §1, with “agonist, GIPR” for “agonist, GLP-1R”, “with GIPR” for “with GLP-1R”, “activity assay” for “activity test”, “evaluating GIP” for “evaluating GLP-1”, “expressing GIPR” for “expressing GLP-1R”

GCG-R = molecular target: T3, GCG-R (Homo sapiens, UniProt P47871); assay: GCG activity test (cAMP, chemiluminescence)
T3 construct: expressed in transfected cells; host or cells: CHO-K1
T3 sequence (P47871 26-477, species assumed): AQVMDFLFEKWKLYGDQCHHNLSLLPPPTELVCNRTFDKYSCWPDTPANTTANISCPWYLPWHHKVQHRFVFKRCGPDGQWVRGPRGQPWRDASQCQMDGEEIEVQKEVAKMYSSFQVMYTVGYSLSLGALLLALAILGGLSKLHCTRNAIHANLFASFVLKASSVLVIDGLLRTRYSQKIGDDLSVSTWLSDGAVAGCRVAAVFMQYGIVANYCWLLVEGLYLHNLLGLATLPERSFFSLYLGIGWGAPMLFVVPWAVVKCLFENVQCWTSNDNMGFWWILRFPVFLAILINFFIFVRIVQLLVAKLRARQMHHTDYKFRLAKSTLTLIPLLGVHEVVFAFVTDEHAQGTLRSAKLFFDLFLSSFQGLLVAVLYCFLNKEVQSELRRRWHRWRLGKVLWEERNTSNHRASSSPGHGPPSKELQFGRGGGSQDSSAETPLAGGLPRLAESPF
Experimental: Upon stimulation by a specific agonist, GCG-R activates the intracellular adenylate cyclase signaling pathway, resulting in an increase in cAMP levels and ultimately leading to insulin production and secretion. A cell line stably transfected with GCG-R was stimulated with test compounds, thereby rapidly increasing intracellular cAMP levels. The relative luminescence units (RLU) of cells stimulated at various concentrations were measured by a chemiluminescence method, and the EC50 value of the agonist was calculated accordingly. This activity assay method is currently a commonly used method for evaluating GCG receptor agonist activity both domestically and internationally.
A CHO-K1 cell line stably expressing GCG-R was used. The stable cells were stimulated with agonists at different concentrations, and the relative luminescence units after stimulation at each concentration were measured to calculate the EC50 value of the agonist.

T1 sequence (P43220 24-463, species assumed): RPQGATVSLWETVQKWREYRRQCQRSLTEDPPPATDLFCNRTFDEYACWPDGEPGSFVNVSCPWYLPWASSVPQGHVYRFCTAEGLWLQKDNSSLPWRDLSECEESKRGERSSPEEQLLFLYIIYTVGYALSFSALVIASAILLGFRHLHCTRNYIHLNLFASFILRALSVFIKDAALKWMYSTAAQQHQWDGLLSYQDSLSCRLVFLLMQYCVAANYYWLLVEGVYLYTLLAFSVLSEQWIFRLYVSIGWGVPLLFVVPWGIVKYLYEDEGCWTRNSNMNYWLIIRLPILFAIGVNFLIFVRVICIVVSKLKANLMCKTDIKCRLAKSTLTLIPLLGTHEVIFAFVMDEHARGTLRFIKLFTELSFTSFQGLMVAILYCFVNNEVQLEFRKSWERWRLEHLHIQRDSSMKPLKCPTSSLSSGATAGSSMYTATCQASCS

CC[C@H](C)[C@H](NC(=O)[C@H](Cc1ccccc1)NC(=O)[C@H](C)NC(=O)C(C)(C)NC(=O)[C@H](CCC(N)=O)NC(=O)[C@H](C)NC(=O)[C@H](CCCCNC(=O)COCCOCCNC(=O)CCCCC[C@H](NC(=O)CCCCCCCCCCCCCCCCCCC(=O)O)C(=O)O)NC(=O)[C@H](CCCCN)NC(=O)[C@H](CC(=O)O)NC(=O)[C@H](CC(C)C)NC(=O)C(C)(CC(C)C)NC(=O)[C@@H](NC(=O)[C@H](CO)NC(=O)[C@H](Cc1ccc(O)cc1)NC(=O)[C@H](CC(=O)O)NC(=O)[C@H](CO)NC(=O)[C@@H](NC(=O)C(C)(Cc1ccccc1F)NC(=O)[C@@H](NC(=O)CNC(=O)[C@H](CCC(N)=O)NC(=O)C(C)(C)NC(=O)[C@@H](N)Cc1ccc(O)cc1)[C@@H](C)O)[C@@H](C)O)[C@@H](C)CC)C(=O)N[C@@H](CCC(=O)O)C(=O)N[C@@H](Cc1ccc(O)cc1)C(=O)N[C@@H](CC(C)C)C(=O)N[C@@H](CC(C)C)C(=O)N[C@@H](CCC(=O)O)C(=O)NCCCCC(=O)N1CCC[C@H]1C(=O)N[C@@H](CO)C(=O)N[C@@H](CO)C(=O)NCC(=O)N[C@@H](C)C(=O)N1CCC[C@H]1C(=O)N1CCC[C@H]1C(=O)N1CCC[C@H]1C(=O)N[C@@H](CO)C(N)=O (stereo partly drawn) [Compound 8]
EC50 (GLP-1R): 52.4 pM
EC50 (GIPR): 32.9 pM
EC50 (GCG-R): 179 pM

CC[C@H](C)[C@H](NC(=O)[C@H](Cc1ccccc1)NC(=O)[C@H](C)NC(=O)C(C)(C)NC(=O)[C@H](CCC(N)=O)NC(=O)[C@H](C)NC(=O)[C@H](CCCCNC(=O)COCCOCCNC(=O)CC[C@H](NC(=O)CCCCCCCCCCCCCCCCCCC(=O)O)C(=O)O)NC(=O)[C@H](CCCCN)NC(=O)[C@H](CC(=O)O)NC(=O)[C@H](CC(C)C)NC(=O)[C@](C)(CC(C)C)NC(=O)[C@@H](NC(=O)[C@H](CO)NC(=O)[C@H](Cc1ccc(O)cc1)NC(=O)[C@H](CC(=O)O)NC(=O)[C@H](CO)NC(=O)[C@@H](NC(=O)[C@H](Cc1ccccc1)NC(=O)[C@@H](NC(=O)CNC(=O)[C@H](CCC(N)=O)NC(=O)C(C)(C)NC(=O)[C@@H](N)Cc1ccc(O)cc1)[C@@H](C)O)[C@@H](C)O)[C@@H](C)CC)C(=O)N[C@@H](CCC(=O)O)C(=O)N[C@@H](Cc1ccc(O)cc1)C(=O)N[C@@H](CC(C)C)C(=O)N[C@@H](CC(C)C)C(=O)N[C@@H](CCC(=O)O)C(=O)NCC(=O)NCC(=O)N1CCC[C@H]1C(=O)N[C@@H](CO)C(=O)N[C@@H](CO)C(=O)NCC(=O)N[C@@H](C)C(=O)N1CCC[C@H]1C(=O)N1CCC[C@H]1C(=O)N1CCC[C@H]1C(=O)N[C@@H](CO)C(N)=O [retatrutide, Retatrutide, reference compound]
EC50 (GLP-1R; CHO-K1 cell line stably expressing GLP-1R, cAMP, relative luminescence units, read-out: GLP-1 [EC50(pmol)]): 46 pM
EC50 (GIPR; CHO-K1 cell line stably expressing GIPR, cAMP, relative luminescence units, read-out: GIP [EC50(pmol)]): 34.2 pM
EC50 (GCG-R; CHO-K1 cell line stably expressing GCG-R, cAMP, relative luminescence units, read-out: GCG [EC50(pmol)]): 524 pM

CC[C@H](C)[C@H](NC(=O)[C@H](Cc1ccccc1)NC(=O)[C@H](C)NC(=O)C(C)(C)NC(=O)[C@H](CCC(N)=O)NC(=O)[C@H](C)NC(=O)[C@H](CCCCNC(=O)COCCOCCOCCOCCOCCNC(=O)CC[C@H](NC(=O)CCCCCCCCCCCCCCCCCCC(=O)O)C(=O)O)NC(=O)[C@H](CCCCN)NC(=O)[C@H](CC(=O)O)NC(=O)[C@H](CC(C)C)NC(=O)C(C)(CC(C)C)NC(=O)[C@@H](NC(=O)[C@H](CO)NC(=O)[C@H](Cc1ccc(O)cc1)NC(=O)[C@H](CC(=O)O)NC(=O)[C@H](CO)NC(=O)[C@@H](NC(=O)C(C)(Cc1ccccc1)NC(=O)[C@@H](NC(=O)CNC(=O)[C@H](CCC(N)=O)NC(=O)C(C)(C)NC(=O)[C@@H](N)Cc1ccc(O)cc1)[C@@H](C)O)[C@@H](C)O)[C@@H](C)CC)C(=O)N[C@@H](CCC(=O)O)C(=O)N[C@@H](Cc1ccc(O)cc1)C(=O)N[C@@H](CC(C)C)C(=O)N[C@@H](CC(C)C)C(=O)N[C@@H](CCC(=O)O)C(=O)NCCCCC(=O)N1CCC[C@H]1C(=O)N[C@@H](CO)C(=O)N[C@@H](CO)C(=O)NCC(=O)N[C@@H](C)C(=O)N1CCC[C@H]1C(=O)N1CCC[C@H]1C(=O)N1CCC[C@H]1C(=O)N[C@@H](CO)C(N)=O (stereo partly drawn) [Compound 10]
EC50 (GLP-1R): 49.4 pM
EC50 (GIPR): 25.6 pM
EC50 (GCG-R): 299 pM

CC[C@H](C)[C@H](NC(=O)[C@H](Cc1ccccc1)NC(=O)[C@H](C)NC(=O)C(C)(C)NC(=O)[C@H](CCC(N)=O)NC(=O)[C@H](C)NC(=O)[C@H](CCCCNC(=O)COCCOCCNC(=O)CC[C@H](NC(=O)CCCCCCCCCCCCCCCCCCC(=O)O)C(=O)O)NC(=O)[C@H](CCCCN)NC(=O)[C@H](CC(=O)O)NC(=O)[C@H](CC(C)C)NC(=O)C(C)(CC(C)C)NC(=O)[C@@H](NC(=O)[C@H](CO)NC(=O)[C@H](Cc1ccc(O)cc1)NC(=O)[C@H](CC(=O)O)NC(=O)[C@H](CO)NC(=O)[C@@H](NC(=O)C(C)(Cc1ccccc1F)NC(=O)[C@@H](NC(=O)CNC(=O)[C@H](CCC(N)=O)NC(=O)C(C)(C)NC(=O)[C@@H](N)Cc1ccc(O)cc1)[C@@H](C)O)[C@@H](C)O)[C@@H](C)CC)C(=O)N[C@@H](CCC(=O)O)C(=O)N[C@@H](Cc1ccc(O)cc1)C(=O)N[C@@H](CC(C)C)C(=O)N[C@@H](CC(C)C)C(=O)N[C@@H](CCC(=O)O)C(=O)NCCCCC(=O)N1CCC[C@H]1C(=O)N[C@@H](CO)C(=O)N[C@@H](CO)C(=O)NCC(=O)N[C@@H](C)C(=O)N1CCC[C@H]1C(=O)N1CCC[C@H]1C(=O)N1CCC[C@H]1C(=O)N[C@@H](CO)C(N)=O (stereo partly drawn) [Compound 5]
EC50 (GLP-1R): 43.4 pM
EC50 (GIPR): 23.6 pM
EC50 (GCG-R): 158 pM

CC[C@H](C)[C@H](NC(=O)[C@H](Cc1ccccc1)NC(=O)[C@H](C)NC(=O)C(C)(C)NC(=O)[C@H](CCC(N)=O)NC(=O)[C@H](C)NC(=O)[C@H](CCCCNC(=O)COCCOCCNC(=O)COCCOCCNC(=O)CC[C@H](NC(=O)CCCCCCCCCCCCCCCCCCC(=O)O)C(=O)O)NC(=O)[C@H](CCCCN)NC(=O)[C@H](CC(=O)O)NC(=O)[C@H](CC(C)C)NC(=O)C(C)(CC(C)C)NC(=O)[C@@H](NC(=O)[C@H](CO)NC(=O)[C@H](Cc1ccc(O)cc1)NC(=O)[C@H](CC(=O)O)NC(=O)[C@H](CO)NC(=O)[C@@H](NC(=O)C(C)(Cc1ccccc1F)NC(=O)[C@@H](NC(=O)CNC(=O)[C@H](CCC(N)=O)NC(=O)C(C)(C)NC(=O)[C@@H](N)Cc1ccc(O)cc1)[C@@H](C)O)[C@@H](C)O)[C@@H](C)CC)C(=O)N[C@@H](CCC(=O)O)C(=O)N[C@@H](Cc1ccc(O)cc1)C(=O)N[C@@H](CC(C)C)C(=O)N[C@@H](CC(C)C)C(=O)N[C@@H](CCC(=O)O)C(=O)NCCCCC(=O)N1CCC[C@H]1C(=O)N[C@@H](CO)C(=O)N[C@@H](CO)C(=O)NCC(=O)N[C@@H](C)C(=O)N1CCC[C@H]1C(=O)N1CCC[C@H]1C(=O)N1CCC[C@H]1C(=O)N[C@@H](CO)C(N)=O (stereo partly drawn) [Compound 11]
EC50 (GLP-1R): 48.7 pM
EC50 (GIPR): 25.3 pM
EC50 (GCG-R): 174 pM
